Consider seven compounds from article PMC10985270 (Acta Pharmaceutica Sinica. B, 2024).

For one assay, the target named is T1, hMAO-A (Homo sapiens, UniProt P21397).
T1 sequence (P21397 1-527): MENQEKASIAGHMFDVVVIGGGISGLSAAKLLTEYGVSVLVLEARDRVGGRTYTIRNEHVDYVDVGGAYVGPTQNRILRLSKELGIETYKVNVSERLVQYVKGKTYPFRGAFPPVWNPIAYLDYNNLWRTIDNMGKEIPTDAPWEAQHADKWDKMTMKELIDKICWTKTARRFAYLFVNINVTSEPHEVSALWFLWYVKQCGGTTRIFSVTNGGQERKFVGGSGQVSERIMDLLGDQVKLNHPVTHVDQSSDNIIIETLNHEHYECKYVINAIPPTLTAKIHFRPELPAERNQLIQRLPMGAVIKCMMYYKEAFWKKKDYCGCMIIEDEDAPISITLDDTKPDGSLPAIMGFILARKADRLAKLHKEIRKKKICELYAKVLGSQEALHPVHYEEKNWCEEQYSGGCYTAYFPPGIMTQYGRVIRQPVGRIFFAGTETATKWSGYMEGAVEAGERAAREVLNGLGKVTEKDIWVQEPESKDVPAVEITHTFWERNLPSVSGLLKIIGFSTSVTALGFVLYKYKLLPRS
The assay is described as follows: hMAO-A fluorescence bioassay. The class given is biochemical.

For assay [1], the target named is T2, hMAO-B (Homo sapiens, UniProt P27338).
T2 sequence (P27338 1-520): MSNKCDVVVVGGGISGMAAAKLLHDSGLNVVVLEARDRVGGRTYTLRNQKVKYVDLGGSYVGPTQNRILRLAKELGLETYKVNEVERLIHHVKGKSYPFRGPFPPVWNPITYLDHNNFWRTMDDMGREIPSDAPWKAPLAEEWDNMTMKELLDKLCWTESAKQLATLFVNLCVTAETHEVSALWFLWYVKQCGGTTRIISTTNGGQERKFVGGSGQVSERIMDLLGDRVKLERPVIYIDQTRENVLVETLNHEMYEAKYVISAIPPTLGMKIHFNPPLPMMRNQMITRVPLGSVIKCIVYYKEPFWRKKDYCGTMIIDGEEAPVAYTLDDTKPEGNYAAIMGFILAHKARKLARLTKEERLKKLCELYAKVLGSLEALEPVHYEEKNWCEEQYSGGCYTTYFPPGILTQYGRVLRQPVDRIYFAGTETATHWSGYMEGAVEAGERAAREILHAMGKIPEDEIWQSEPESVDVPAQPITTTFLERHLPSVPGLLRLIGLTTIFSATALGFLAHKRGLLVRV
Nature of the assay: hMAO-B fluorescence bioassay. Format: biochemical. The following applies: for SI: selectivity index for the MAO-B isoform: ratio IC50(MAO-A)/IC50(MAO-B).

Assay [2] has as its target T2, hMAO-B. Nature of the assay: At-line nanofractionation hMAO-B screening of mixed standards. The following applies: mixed standards 100 μmol/L. Format: biochemical.
Another assay relates to SH-SY5Y cells. Nature of the assay: Neuroprotection against 6-OHDA-induced toxicity in SH-SY5Y cells. The following applies: Homo sapiens, read-out: EC50, neuroprotective effect. The class given is cell-based.
Assay [3] has as its target T2, hMAO-B. The assay is described as follows: Reversibility of hMAO-B inhibition. The class given is biochemical. The following applies: KYN 46 μmol/L.

The structures appear in SMILES notation. Where two headings read alike, the source gives them in different places.

As to `O=C(O)/C=C/c1ccc(O)c(O)c1` [Caffeic acid], the IC50 is 60.9 ± 5.85 µM on hMAO-A and 33.1 ± 7.57 µM against hMAO-B [1] (Inhibition (IC50) hMAO-B, Table 1). For the same compound, the “SI: selectivity index for the MAO-B isoform” value (from here on “SI: selectivity index”) at hMAO-B [1] came out at 1.840.

`COc1ccc(-c2coc3cc(O)ccc3c2=O)cc1O` [Calycosin, reference compound]: the “Activity peak in bioactivity chromatogram” value at hMAO-B [2] is recorded as “displayed inhibitory activity”. The compound further showed an IC50 at hMAO-B [1] of 24 µM.

Take `O=C(/C=C/c1ccc(O)c(O)c1)O[C@@H]1C[C@](O)(C(=O)O)C[C@@H](O)[C@H]1O` [Chlorogenic acid]: the IC50 at hMAO-A turned out to be 82.4 ± 14.6 µM; at hMAO-B [1], 69.6 ± 14.4 µM.

As for `CCCC[C@@H]1OC(=O)C2=CCCC[C@H]21` [Neocnidilide], the IC50 was found to be 102 ± 13.1 µM on hMAO-A and 0.494 ± 0.132 µM against hMAO-B [1]. Further, the “Inhibitory activity against hMAO-B (in words)” value on hMAO-B [1] (phthalides) is recorded as “highest activity”. Besides, the “SI: selectivity index” value is listed as 207.362 on hMAO-B [1] and 207 on hMAO-B [1] (listed as neocnidilide). Further, the EC50 with SH-SY5Y cells was 1.16 µM. For the same compound, the “Reversibility of hMAO-B inhibition” value at hMAO-B [3] is “reversible”.

As to `C#CCN[C@@H]1CCc2ccccc21` [Rasagiline], the “Activity peak in bioactivity chromatogram” value at hMAO-B [2] is reported as “displayed inhibitory activity”. For the same compound, in the assay on SH-SY5Y cells, the EC50 is 0.896 µM.

Regarding `C[C@H](NCc1ccc(OCc2cccc(F)c2)cc1)C(N)=O` [Safinamide, reference compound], the EC50 in the assay with SH-SY5Y cells came out at 1.08 µM. Further, at hMAO-B [3], the “Reversibility of hMAO-B inhibition” value is “reversible”.

As to `COc1cc(C=O)ccc1O` [Vanillin], it took 86.1 ± 15.3 µM to reach half-maximal inhibition against hMAO-A (IC50). Also, on hMAO-B [1], the midpoint of inhibition, the IC50, lay at 45.7 ± 2.6 µM and the “SI: selectivity index” value came to 1.884.

One may read the IC50 as the point on the concentration scale where inhibition reaches its midpoint. A high value points to weaker potency in that assay. One may read the EC50 as the concentration giving half of the maximal effect.
